Test results taken from US11826325B2, “Use of Belinostat or pharmaceutically acceptable salt thereof in preparation of drug for treating infection” (priority 2021, dated 2023).

Tests used:
[1] = test system: Bacillus subtilis (ATCC 23857 strain); assay: Growth curve of Bacillus subtilis (OD600); type: cell-based; conditions: 24 hours
Description: (§1) Before the experiment, an appropriate amount of Belinostat was weighed and dissolved in DMSO to obtain a mother liquid with a concentration of 100 mM. The mother liquid was diluted with an LB medium for use. Bacillus subtilis used in this embodiment was ATCC 23857 strain, and Staphylococcus aureus was methicillin-resistant Staphylococcus aureus ATCC BAA-1761 strain.
The experiment was performed on a 96-well plate, four groups of drug treated groups and one blank control group (that is, the Control group) were set, and each group had three repeat wells. A bacterial solution of Bacillus subtilis (ATCC 23857 strain) cultured in an LB medium was diluted to 5×10^5 CFU/mL with an LB medium, 15 wells were selected in the middle of the 96-well plate, 100 μL of diluted bacterial solution was added to each well, and then 100 μL of Belinostat solution diluted with the LB medium was added, so that the final drug concentrations in the four drug treated groups were 100 μM, 200 μM, 400 μM, and 500 μM, respectively. DMSO and the LB medium were added to the blank control group, so that the final concentration of the DMSO was 0.5% and a volume of a reaction system was consistent with that of each drug treated group. Shaking culture was performed at 37° C. for 24 hours.
Absorbance at 600 nm was used as an index of a bacterial concentration in the culture solution for determining once every 3 hours. Finally, with OD600 as a vertical coordinate and time as a horizontal coordinate, a bacterial growth curve was drawn.

HU protein [2] = molecular target: T1, HU protein (Bacillus subtilis, UniProt P08821); assay: waterLOGSY 1D NMR binding experiment, HU protein; conditions: 10 μM protein, pH 6.5 buffer
T1 sequence (P08821 whole entry): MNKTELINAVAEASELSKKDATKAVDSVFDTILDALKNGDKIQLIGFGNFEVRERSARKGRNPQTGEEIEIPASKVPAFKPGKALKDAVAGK
Description: (§2) At the molecular level, a binding effect of Belinostat with the HU protein was verified by nuclear magnetism Titration and waterLOGSY experiments. The isoleucine (Ile) at the 71^St site in the HU protein was mutated into alanine (Ala) to obtain a corresponding mutant (hereinafter referred to as “HU^171A protein”), then the waterLOGSY experiment was repeated, and the binding effect of the drug and the mutated HU^171A protein disappeared, proving that a key binding site of the two was the amino acid at the 71st site in the HU protein. Specific experimental steps and experimental results are as follows:
(§3) 1 μL of the foregoing Belinostat stock solution was taken, 479 μL of buffer solution (300 mM of NaCl and 50 mM of K2HPO4, with the pH of 6.5) and 20 μL of D2O were added and mixed evenly, and then the obtained solution was transferred to the nuclear magnetic resonance tube for use. In addition, two parts of 1 μL of the foregoing Belinostat stock solution were taken, an appropriate amount of HU protein and HU^171A protein were added respectively, then an appropriate amount of buffer solution and 20 μL of D2O were added respectively, so that the total volume of the solution was 500 μL, and the final protein concentration was 10 μm. After uniform mixing, the obtained solutions were transferred to nuclear magnetic resonance tubes for use. […]

HU protein [3] = molecular target: T1, HU protein; assay: Nuclear magnetism Titration (HSQC) binding experiment; conditions: 10 μM HU protein, 1 μL of 100 mM Belinostat stock added
Description: as §2
An appropriate amount of Belinostat (MedChemExpress Company) was weighed and dissolved in DMSO-d6 (Solarbio Science & Technology Co., Ltd.) to obtain a stock solution of Belinostat with a concentration of 100 mM for use. 480 μl of solution containing 10 μM of HU protein was taken, 20 μL of D2O was added and mixed evenly, the obtained solution was transferred into a nuclear magnetic resonance tube, and an HSQC spectrogram of the HU protein was recorded on a Brooke 600 MHz nuclear magnetic resonance spectrometer (Avance III). 1 μL of Belinostat stock solution was taken, added into the foregoing nuclear magnetic resonance tube and mixed evenly, and then an HSQC spectrogram was recorded again.

HU^171A protein = HU^171A protein (Bacillus subtilis, UniProt P08821, I71A); assay: waterLOGSY 1D NMR binding experiment, mutated HU protein; conditions: 10 μM protein, pH 6.5 buffer
Sequence of HU^171A protein (P08821 whole entry I71A): as the sequence (P08821 whole entry) above, with I71A counted along it
Description: as §2, §3

Bacillus subtilis [4] = assay: DAPI staining of Bacillus subtilis; type: cell-based; conditions: 500 μM, 4 hours
Description: as §1
(§4) The experiments were performed in EP tubes, and one drug treated group and one blank control group were set. A bacterial solution of Bacillus subtilis cultured in an LB medium was diluted to 5×10^5 CFU/mL with the LB medium, 100 μL of diluted bacterial solution was taken and added to a 1.5 mL EP tube, and then 100 μL of Belinostat solution diluted with the LB medium was added, so that the final drug concentration was 500 μM. DMSO and the LB medium were added to the blank control group, so that the final concentration of the DMSO was 0.5% and a volume of a reaction system was consistent with that of the drug treated group. Three replicate tube were set in each group, and shaking culture was performed at 37° C. for 4 hours. […]

Bacillus subtilis [5] = assay: Transmission electron microscope observation of Bacillus subtilis; type: cell-based; conditions: 500 μM, 4 hours
Description: as §1
(§5) A bacterial solution of Bacillus subtilis cultured in an LB medium was diluted to 5×10^5 CFU/mL with the LB medium, 2.5 mL of diluted bacterial solution was taken and added to a 15 mL centrifuge tube, and then 2.5 mL of Belinostat solution diluted with the LB medium was added, so that the final drug concentration was 500 μM. 25 μL of DMSO and an appropriate amount of LB medium were added to the blank control group (the Control group) to ensure that a volume of a reaction system was consistent with that of the drug treated group (the Treated group). Three replicate tubes were set in each group. Shaking culture was performed at 37° C. for 4 hours, and bacteria were collected by centrifugation. […]

[6] = test system: Staphylococcus aureus (ATCC BAA-1761 strain); assay: DAPI staining of Staphylococcus aureus; type: cell-based; conditions: 500 μM, 4 hours, methicillin-resistant strain
Description: as §1, §4

Staphylococcus aureus = assay: Transmission electron microscope observation of Staphylococcus aureus; type: cell-based; conditions: 500 μM, 4 hours
Description: as §1, §5

[7] = test system: Staphylococcus aureus (ATCC BAA-1761 strain); assay: Mouse superficial skin injury infection model, viable bacterial count on infected wound; type: in vivo; conditions: mice; for bacterial count in skin lesion site compared with blank control group: topical twice a day for 3 days, p.value=0.0006
Description: (§6) Medical tape; 3% chloral hydrate; normal saline; 0.1 μM Belinostat and 100 μM Belinostat (with solvents being 10% glycerin); a commercially available fusidic acid ointment (2% drug content); an LB plate; an independent air supply cage for mice; surgical scissors; tweezers; and a hair removal device.
(§7) 20 female BALB/c mice aged 6-8 weeks were kept in the independent air supply cage.
Preparation of a bacterial solution: Staphylococcus aureus (ATCC BAA-1761 strain), preserved by the Laboratory Department of the First Affiliated Hospital of Xi′an Jiaotong University. Before the experiment, Staphylococcus aureus was inoculated in 5 mL of LB and placed in an incubator at 37° C. for shaking culture, and when the amount of bacteria was about 10^7 CFU/mL, the bacteria were taken out for use.
Back skin of 6-8 week-old female BALB/c mice was depilated with a depilatory paste before modeling, and an exposed skin region with a size of about 1 cm^2 was formed. On the day of modeling, the mice were anesthetized by intraperitoneal injection of 3% chloral hydrate at 10 mL/kg. A same operator pasted the medical adhesive tape to the depilated skin of the mice with basically a same strength, and then tore the medical adhesive tape off. The foregoing paste-tear operation was repeated many times to remove stratum corneum, and the adhesive tape needed to be replaced during each paste-tear process. When the skin of the mice became red and shiny, but there was no regular bleeding, the paste was stopped. The foregoing 10 μL of bacterial suspension was evenly applied to the damaged skin of the mice, and the infection lasted for 24 hours to establish the model of superficial skin injury of the mice.
The mice were randomly divided into four groups, which were a blank control (control) group, a low-concentration X group (low-concentration group, with a specific concentration of 0.1 μM), a high-concentration X group (high-concentration group, with a specific concentration of 100 μM), and a fusidic acid group (fusidic acid group, that is, a positive control group), with five mice in each group. All the mice of the blank control group were killed the day before the start of treatment to quantify an amount of bacterial inoculation. The three drug groups were administered twice a day (8:00 am. and 8:00 p.m. respectively) for three consecutive days after the infection. Dosages of the low-concentration X group and the high-concentration X group were 50 μL/time for each mouse, and a dosage of the fusidic acid group was 0.1 g/time for each mouse. […] After the experiment, the mice were killed.
After the mice were killed, a wound of about 1 cm^2 was excised immediately, and put into a tissue homogenizing tube with 1 mL of normal saline and magnetic beads for tissue homogenization. 100 μL of tissue homogenate was diluted with normal saline for 10^1, 10^2, 10^3, and 10^4 times gradient, and then 100 μL of each diluted solution was evenly spread on an LB plate. After inverted overnight culture for 12-24 hours, colonies were counted and the count was converted into bacterial content (CFU/cm^2) per square centimeter of tissue.

[8] = Mouse superficial skin injury infection model, wound healing; type: in vivo, BALB/c mice; conditions: mice, low-concentration group 0.1 μM vs high-concentration group 100 μM and fusidic acid group
Description: as §6, §7
Back skin of 6-8 week-old female BALB/c mice was depilated with a depilatory paste before modeling, and an exposed skin region with a size of about 1 cm^2 was formed. On the day of modeling, the mice were anesthetized by intraperitoneal injection of 3% chloral hydrate at 10 mL/kg. A same operator pasted the medical adhesive tape to the depilated skin of the mice with basically a same strength, and then tore the medical adhesive tape off. […]
The mice were randomly divided into four groups, which were a blank control (control) group, a low-concentration X group (low-concentration group, with a specific concentration of 0.1 μM), a high-concentration X group (high-concentration group, with a specific concentration of 100 μM), and a fusidic acid group (fusidic acid group, that is, a positive control group), with five mice in each group. All the mice of the blank control group were killed the day before the start of treatment to quantify an amount of bacterial inoculation. […]

SMILES	effect on growth of Bacillus subtilis (absorbance at 600 nm vs blank control) ([1]; 200 μM)	effect on growth of Bacillus subtilis ([1]; 400 μM)	effect on growth of Bacillus subtilis ([1]; 500 μM)	effect on growth of Bacillus subtilis ([1]; different concentrations (100, 200, 400, 500 μM), 37° C.)	binding to HU protein (waterLOGSY peaks reversed into negative peaks) (HU protein [2])	binding to HU protein (peak migration and peak intensity change in HSQC spectrum) (HU protein [3])	binding to mutated HU^171A protein (waterLOGSY) (HU^171A protein)	DAPI staining, nucleus region morphology (Bacillus subtilis [4])	transmission electron microscope, cell length and nucleoid regions (Bacillus subtilis [5])	DAPI staining, nucleus region morphology [6]	transmission electron microscope, nucleoid regions (Staphylococcus aureus)	bacterial load at the skin lesion site, two concentrations ([7]; 0.1 μM and 100 μM, 50 μL/time, twice a day, 3 days)	antibacterial ability compared with commercial fusidic acid ([7]; dosage of Belinostat lower than that of fusidic acid)	curative effect compared with fusidic acid ([7]; molar dosages much lower than fusidic acid)	bacterial count in skin lesion site compared with blank control group [7]	wound healing speed [8]
O=C(/C=C/c1cccc(S(=O)(=O)Nc2ccccc2)c1)NO [Belinostat, N-hydroxy-3-(3-[(phenylamino)sulfonyl]phenyl)acrylamide]	relatively strong inhibitory effect on bacterial growth	almost completely inhibited	almost completely inhibited	inhibitory effect on growth of Bacillus subtilis	bound to the HU protein	can bind to the HU protein	could not react with the mutated HU protein	bacterial nucleus region became longer	increased to different degrees, and nucleoid regions were scattered in many places in cytoplasm	bacterial nucleus region was dispersed	became inconspicuous and showed a loose state	same bactericidal effect	equivalent antibacterial ability	better than that of the fusidic acid	significantly reduced	significantly faster
CC(=O)O[C@H]1C[C@@]2(C)[C@@H](C[C@@H](O)[C@H]3[C@@]4(C)CC[C@@H](O)[C@@H](C)[C@@H]4CC[C@@]32C)/C1=C(\CCC=C(C)C)C(=O)O [fusidic acid]	–	–	–	–	–	–	–	–	–	–	–	–	–	–	significantly reduced	–
